Patent US20250059196A1 (SHANGHAI HANSOH BIOMEDICAL CO., LTD., priority 2021, published 2025)

Key:
[1] = system: OCI-LY3 cell subcutaneous xenograft tumor; test: Tumor inhibition in OCI-LY3 subcutaneous xenograft NOG mouse model of human diffuse large B-cell lymphoma; assay type: in vivo; conditions: NOG mice, 30 mg, BID × 4 weeks, oral; for Weight Day 28: in g (unit assumed); for Tumor volume (Mean ± SD) Day 28: vehicle group 1274 ± 82
Experimental: The efficacy of test drugs was evaluated in OCI-LY3 mouse subcutaneous tumor model of human diffuse large B-cell lymphoma
• 1. Animal: NOG mice, female, 6-8 weeks old, weighing 18-22 grams, a total of 65 mice were needed. Provided by Beijing Vital River Laboratory Animal Technology Co., Ltd. or other qualified suppliers. • 2. Cell: Human diffuse large B-cell lymphoma OCI-LY3 cells were cultured in vitro as monolayers and conventional digestion treatment with trypsin-EDTA was carried out twice a week for passage. When the cell confluence was 80%-90% and the number reached the required number, cells were collected, counted, and inoculated. • 3. Grouping for vaccination: Cells (5×10^6 cells+Matrigel/0.2 ml) were inoculated subcutaneously into each mouse. The growth of animals and transplanted tumors were observed regularly. When the tumor grew to a volume of about 150-200 mm^3, the tumor volume of each mouse was calculated, and the mice were divided into random groups according to tumor volume and body weight. The calculation formula of tumor volume was V=0.5a×b^2, wherein a and b represented the long and short diameters of the tumor, respectively. • 4. Administration: According to the grouping results, the test drug was started to be administered (administration method: oral administration; Administration volume: 10 mL/kg; Administration frequency: 2 times/day; Administration cycle: 28 days; Vehicle: 10% solutol HS15-0.25% CMC-Na). Tumors were measured and weighed twice a week after starting administration of test drugs. • 5. Animals were euthanized after the experiment. • 6. Data processing: The tumor inhibitory efficacy of the compound was evaluated by TGI (%) or relative tumor proliferation rate T/C (%). TGI (%) reflects the tumor growth inhibition rate. Calculation of TGI (%): TGI (%)=[(1−(average tumor volume at the end of administration in a treatment group−average tumor volume at the beginning of administration in the treatment group))/(average tumor volume at the end of administration in the solvent control group−average tumor volume at the beginning of administration in the solvent control group)]×100%.
Relative tumor proliferation rate T/C (%): The calculation formulas are as follows: T/C %=TRTV/CRTV×100% (TRTV: RTV of treatment group; CRTV: RTV of negative control group). The relative tumor volume (RTV) was calculated based on the results of tumor measurement. The calculation formula is RTV=Vt/V0, where V0 is the average tumor volume measured at grouping for administration (i.e. d0), Vt is the average tumor volume at a certain measurement, and TRTV and CRTV take the data on the same day.
After the experiment, the tumor weight was measured, and the T/Cweight percentage was calculated. Tweight and Cweight represented the tumor weight of the administration group and the vehicle control group, respectively.
Remarks: The data in parentheses indicate the tumor volume corresponding to the vehicle group (i.e., the control group) at the corresponding time in this example.

[2] = Caco-2 bidirectional permeability test; conditions: human, Caco-2
Experimental: The purpose of this experiment is to test the bidirectional permeability of the compound through the Caco-2 cell model and evaluate whether the compound is transported by efflux transporters.
Liquid chromatography-mass spectrometer, centrifuge, vortexer, pipette, 96-well test plate (HTS Transwell Plate), acetonitrile solution containing internal standard, Caco-2 cells (ATCC), Hank's balance solution (HBSS), fluorescent yellow (LY), dimethyl sulfoxide (DMSO).
108 μL of transport buffer (HBSS containing 10 μM of the example compound) was added to the administration end of A to B. • b. 300 μL of transport buffer (HBSS containing DMSO) was added to the receiving end of A to B. • c. 300 μL of transport buffer (HBSS containing 10 μM example compound) was added to the administration end of A to B. • d. 108 μL of transport buffer (HBSS containing DMSO) was added to the receiving end of A to B. • e. incubation was performed for 90 min. • d. a sample was taken, processed and detected with mass spectrometry.
• Instruments: Liquid Chromatography; • Chromatographic column: Waters XSelect HSS T3 2.5 μm (2.1×50 mm); • Mobile phase: Phase A: 0.1% formic acid in pure water; Phase B: 0.1% formic acid in acetonitrile.
• Instruments: AP16500+liquid chromatography-mass spectrometer; • The ion source is electrospray ionization source (ESI); • The detection method is positive ion detection;
The scanning method is selected reaction monitoring (MRM).

Row | Compound | TGI (%) Day 28 [1] | ΔT/ΔC(%) Day 28 [1] | Weight Day 28 [1] | Tumor volume (Mean ± SD) Day 28 [1] | Papp A→B at 90 min, 10 µM [2] | Papp B→A at 90 min, 10 µM [2] | efflux ratio at 90 min, 10 µM [2]
1 | O=C(Nc1cnc(-n2nccn2)c(C(F)(F)F)c1)c1cnn(-c2ccc3c4c(cccc24)C(=O)N3)c1C(F)(F)F [Example 18, N-(6-(2H-1,2,3-triazol-2-yl)-5-trifluoromethylpyridin-3-yl)-1-(2-oxo-1,2-dihydrobenzo[cd]indol-6-yl)-5-trifluoromethyl-1H-pyrazole-4-carboxamide] | 62.73% | 43.82% | 21.03 ± 0.42 | 635 ± 46 (1274 ± 82) mm^3 | – | – | –
2 | O=C(Nc1ccc(-n2nccn2)c(Cl)c1)c1cnn(-c2ccc3c4c(cccc24)C(=O)N3)c1C(F)(F)F [Example 53, N-(3-chloro-4-(2H-1,2,3-triazol-2-yl)phenyl)-1-(2-oxo-1,2-dihydrobenzo[cd]indol-6-yl)-5-(trifluoromethyl)-1H-pyrazole-4-carboxamide] | 67.23% | 41.76% | 20.06 ± 1.08 | 519 ± 89 (1274 ± 82) mm^3 | 1.58 ×10⁻⁶ cm/s | 4.68 ×10⁻⁶ cm/s | 2.95
3 | O=C(Nc1ccnc(C(F)(F)F)c1)c1cnn(-c2ccc3c4c(cccc24)C(=O)N3)c1C1CC1 [Example 55, 5-cyclopropyl-1-(2-oxo-1,2-dihydrobenzo[cd]indol-6-yl)-N-(2-(trifluoromethyl)pyridin-4-yl)-1H-pyrazole-4-carboxamide] | 87.99% | 22.76% | 21.15 ± 0.72 | 287 ± 25 (1274 ± 82) mm^3 | 2.09 ×10⁻⁶ cm/s | 4.08 ×10⁻⁶ cm/s | 1.97
